From patent US8017775B2, “1-2-dihydroquinoline derivative having glucocorticoid receptor binding activity” (Santen Pharmaceutical Co., Ltd., priority 2005, dated 2011)

Molecular target: T1, Recombinant human GR (Homo sapiens, UniProt P04150)
T1 construct: purchased Invitrogen P2816
T1 sequence (P04150 1-777): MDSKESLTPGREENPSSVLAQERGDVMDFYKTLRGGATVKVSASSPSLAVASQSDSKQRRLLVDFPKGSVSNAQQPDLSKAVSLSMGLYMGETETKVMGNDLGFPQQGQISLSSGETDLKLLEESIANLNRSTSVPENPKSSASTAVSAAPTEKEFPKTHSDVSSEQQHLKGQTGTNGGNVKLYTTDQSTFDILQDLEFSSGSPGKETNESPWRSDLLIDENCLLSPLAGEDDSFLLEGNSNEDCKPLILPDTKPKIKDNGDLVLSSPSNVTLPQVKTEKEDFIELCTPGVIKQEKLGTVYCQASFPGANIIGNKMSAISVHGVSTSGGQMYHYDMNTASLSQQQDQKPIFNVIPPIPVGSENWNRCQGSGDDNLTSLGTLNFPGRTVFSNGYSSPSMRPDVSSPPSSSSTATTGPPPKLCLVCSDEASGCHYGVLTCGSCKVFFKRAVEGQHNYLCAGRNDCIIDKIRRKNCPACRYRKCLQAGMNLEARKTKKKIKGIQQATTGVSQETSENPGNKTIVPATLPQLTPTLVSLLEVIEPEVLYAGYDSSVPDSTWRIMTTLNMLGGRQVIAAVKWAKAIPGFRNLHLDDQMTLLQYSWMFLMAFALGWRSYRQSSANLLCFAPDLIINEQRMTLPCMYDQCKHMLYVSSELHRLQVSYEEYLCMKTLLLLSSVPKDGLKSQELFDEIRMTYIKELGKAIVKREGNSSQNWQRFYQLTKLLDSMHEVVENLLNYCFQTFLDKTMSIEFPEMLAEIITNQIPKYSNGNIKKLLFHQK
Experiment: GR competitor assay by fluorescence polarization (GR binding ratio)
Details: positive control 2 mM dexamethasone, a GR binding ratio of 100% or more is indicated by 100%

| Compound | GR Binding ratio (%) |
| --- | --- |
| COc1ccc(F)cc1-c1ccc2c(c1COc1cc(Cl)ccc1C)C(C)=CC(C)(C)N2 [Compound 14-41, 5-(5-Chloro-2-methylphenoxymethyl)-6-(5-fluoro-2-methoxyphenyl)-2,2,4-trimethyl-1,2-dihydroquinoline] | ≥ 100 |
| COc1cc(F)ccc1-c1ccc2c(c1COc1cccc(C)c1)C(C)=CC(C)(C)N2 [Compound 3-21, 6-(4-Fluoro-2-methoxyphenyl)-5-(3-methylphenoxymethyl)-2,2,4-trimethyl-1,2-dihydroquinoline] | 97 |
